Data taken from article PMC3204160 (Journal of natural products, 2011).
Where two headings read alike, the source gives them in different places.

Legend:
[1] = test system: NCI-60 human cancer cell lines; assay: NCI-60 anticancer drug screen and COMPARE analysis; assay type: cell-based; settings: for over 90% of the tested NCI-60 cell lines; five concentrations 10^−4 to 10^−8 M
recombinant human HDAC1 = recombinant human HDAC1 (Homo sapiens, UniProt Q13547); assay: Two-step fluorogenic HDAC inhibition assay, HDAC1; assay type: biochemical; settings: for times less active against HDAC1 than against HDAC3/N-CoR2: natural/oxidized prodrug form, range given for HDAC1 and HDAC2 together
Sequence of recombinant human HDAC1 (Q13547 whole entry): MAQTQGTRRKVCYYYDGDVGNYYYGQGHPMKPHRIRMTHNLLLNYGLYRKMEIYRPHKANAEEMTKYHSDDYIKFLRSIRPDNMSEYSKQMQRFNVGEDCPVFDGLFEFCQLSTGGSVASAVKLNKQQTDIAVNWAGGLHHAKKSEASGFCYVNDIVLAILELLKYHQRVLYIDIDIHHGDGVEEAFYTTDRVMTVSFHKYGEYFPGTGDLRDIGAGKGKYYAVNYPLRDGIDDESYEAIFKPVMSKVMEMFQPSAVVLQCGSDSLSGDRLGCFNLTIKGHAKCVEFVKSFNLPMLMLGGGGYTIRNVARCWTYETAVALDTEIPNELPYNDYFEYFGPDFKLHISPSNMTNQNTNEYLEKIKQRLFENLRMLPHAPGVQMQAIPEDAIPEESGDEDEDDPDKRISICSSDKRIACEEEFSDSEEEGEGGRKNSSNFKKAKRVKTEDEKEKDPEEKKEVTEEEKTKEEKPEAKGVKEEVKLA

recombinant human HDAC2 = recombinant human HDAC2 (Homo sapiens, UniProt Q92769); assay: Two-step fluorogenic HDAC inhibition assay, HDAC2; assay type: biochemical; settings: for times less active against HDAC2 than against HDAC3/N-CoR2: natural/oxidized prodrug form, range given for HDAC1 and HDAC2 together
Sequence of recombinant human HDAC2 (Q92769 whole entry): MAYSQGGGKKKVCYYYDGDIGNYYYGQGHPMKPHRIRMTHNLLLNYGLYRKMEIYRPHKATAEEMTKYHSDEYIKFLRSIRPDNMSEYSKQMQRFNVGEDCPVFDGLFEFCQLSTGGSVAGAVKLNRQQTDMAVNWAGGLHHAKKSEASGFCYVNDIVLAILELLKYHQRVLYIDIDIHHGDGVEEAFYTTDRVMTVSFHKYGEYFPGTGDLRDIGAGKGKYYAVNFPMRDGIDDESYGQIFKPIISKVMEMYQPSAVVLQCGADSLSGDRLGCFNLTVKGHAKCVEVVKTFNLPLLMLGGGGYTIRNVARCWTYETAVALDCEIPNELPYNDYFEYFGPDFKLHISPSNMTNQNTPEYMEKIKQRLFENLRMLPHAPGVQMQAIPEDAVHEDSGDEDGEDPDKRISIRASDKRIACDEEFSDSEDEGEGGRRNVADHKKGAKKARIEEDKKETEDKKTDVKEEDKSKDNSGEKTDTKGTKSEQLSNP

recombinant human HDAC6 = biological target: T1, recombinant human HDAC6 (Homo sapiens, UniProt Q9UBN7); assay: biochemical; assay type: biochemical; settings: for potency towards HDAC6, times less than to HDAC1–3: reduced form
T1 sequence (Q9UBN7 1-1215): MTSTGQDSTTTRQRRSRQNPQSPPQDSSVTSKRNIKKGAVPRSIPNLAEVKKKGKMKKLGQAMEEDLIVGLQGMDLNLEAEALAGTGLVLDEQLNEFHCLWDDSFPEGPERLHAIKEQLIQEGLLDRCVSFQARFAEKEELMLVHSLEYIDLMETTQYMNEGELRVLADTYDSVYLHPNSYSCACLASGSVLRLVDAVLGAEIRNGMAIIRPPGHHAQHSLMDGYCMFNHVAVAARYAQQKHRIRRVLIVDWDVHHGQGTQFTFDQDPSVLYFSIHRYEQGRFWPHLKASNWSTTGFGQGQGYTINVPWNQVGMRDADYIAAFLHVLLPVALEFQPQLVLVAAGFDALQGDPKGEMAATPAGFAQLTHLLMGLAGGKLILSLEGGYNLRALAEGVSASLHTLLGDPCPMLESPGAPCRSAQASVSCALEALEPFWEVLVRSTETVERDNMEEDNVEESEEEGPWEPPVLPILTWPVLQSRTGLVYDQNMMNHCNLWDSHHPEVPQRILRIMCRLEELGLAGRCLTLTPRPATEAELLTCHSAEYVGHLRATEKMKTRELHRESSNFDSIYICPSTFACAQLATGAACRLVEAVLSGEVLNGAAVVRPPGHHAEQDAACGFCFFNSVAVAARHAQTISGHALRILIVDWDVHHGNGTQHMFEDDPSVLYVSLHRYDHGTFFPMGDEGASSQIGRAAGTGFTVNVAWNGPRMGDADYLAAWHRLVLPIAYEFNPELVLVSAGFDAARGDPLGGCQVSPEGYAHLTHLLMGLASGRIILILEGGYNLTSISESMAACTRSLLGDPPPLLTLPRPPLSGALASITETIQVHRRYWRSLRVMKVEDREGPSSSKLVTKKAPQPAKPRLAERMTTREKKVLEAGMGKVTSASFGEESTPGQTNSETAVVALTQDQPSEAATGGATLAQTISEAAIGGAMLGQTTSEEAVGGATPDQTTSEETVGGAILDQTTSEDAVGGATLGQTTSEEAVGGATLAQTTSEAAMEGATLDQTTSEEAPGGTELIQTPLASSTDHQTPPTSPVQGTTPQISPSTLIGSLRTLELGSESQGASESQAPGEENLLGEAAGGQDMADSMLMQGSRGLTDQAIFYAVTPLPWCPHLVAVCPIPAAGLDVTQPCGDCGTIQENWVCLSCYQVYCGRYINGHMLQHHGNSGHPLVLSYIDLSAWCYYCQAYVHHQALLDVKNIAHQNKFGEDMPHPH

recombinant human HDAC8 = biological target: T2, recombinant human HDAC8 (Homo sapiens, UniProt Q9BY41); assay: biochemical; assay type: biochemical
T2 sequence (Q9BY41 1-377): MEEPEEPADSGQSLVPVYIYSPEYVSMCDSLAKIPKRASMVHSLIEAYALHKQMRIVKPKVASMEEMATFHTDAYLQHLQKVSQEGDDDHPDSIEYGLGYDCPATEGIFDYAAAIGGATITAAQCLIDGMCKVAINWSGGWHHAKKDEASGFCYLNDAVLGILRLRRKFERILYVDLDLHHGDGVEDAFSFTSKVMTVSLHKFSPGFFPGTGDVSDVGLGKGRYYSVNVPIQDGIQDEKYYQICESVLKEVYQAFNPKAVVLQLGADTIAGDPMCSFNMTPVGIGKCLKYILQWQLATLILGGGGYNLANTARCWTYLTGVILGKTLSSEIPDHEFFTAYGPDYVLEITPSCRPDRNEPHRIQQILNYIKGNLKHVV

recombinant human HDAC7 = biological target: T3, recombinant human HDAC7 (Homo sapiens, UniProt Q8WUI4); assay: biochemical
T3 sequence (Q8WUI4 1-952): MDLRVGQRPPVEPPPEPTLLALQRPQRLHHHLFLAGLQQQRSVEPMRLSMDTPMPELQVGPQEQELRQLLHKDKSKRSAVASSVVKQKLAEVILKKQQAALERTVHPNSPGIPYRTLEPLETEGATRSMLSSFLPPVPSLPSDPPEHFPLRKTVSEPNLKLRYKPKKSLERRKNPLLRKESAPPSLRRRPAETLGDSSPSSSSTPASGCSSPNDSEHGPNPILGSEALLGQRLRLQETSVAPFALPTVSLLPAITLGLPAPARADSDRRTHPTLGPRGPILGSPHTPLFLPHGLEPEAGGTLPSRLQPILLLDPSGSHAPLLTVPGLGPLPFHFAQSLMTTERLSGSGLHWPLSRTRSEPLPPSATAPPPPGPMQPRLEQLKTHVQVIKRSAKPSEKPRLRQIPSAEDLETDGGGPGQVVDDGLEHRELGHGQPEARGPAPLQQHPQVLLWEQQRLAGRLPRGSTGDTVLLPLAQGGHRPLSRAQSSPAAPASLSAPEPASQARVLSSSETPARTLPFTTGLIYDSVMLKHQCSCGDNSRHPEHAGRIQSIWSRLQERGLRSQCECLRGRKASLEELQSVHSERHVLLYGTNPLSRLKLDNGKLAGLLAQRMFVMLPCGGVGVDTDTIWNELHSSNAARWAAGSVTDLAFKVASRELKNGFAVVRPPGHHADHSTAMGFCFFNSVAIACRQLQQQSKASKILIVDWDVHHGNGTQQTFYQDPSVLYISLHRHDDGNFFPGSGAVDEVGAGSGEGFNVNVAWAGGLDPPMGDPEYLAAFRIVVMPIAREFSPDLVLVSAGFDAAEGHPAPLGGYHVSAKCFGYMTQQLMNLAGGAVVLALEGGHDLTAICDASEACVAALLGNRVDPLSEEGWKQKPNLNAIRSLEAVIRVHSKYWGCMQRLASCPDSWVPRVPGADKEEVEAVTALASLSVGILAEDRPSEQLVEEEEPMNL

recombinant human HDAC4 = recombinant human HDAC4 (Homo sapiens, UniProt P56524); assay: biochemical; assay type: biochemical
Sequence of recombinant human HDAC4 (P56524 whole entry): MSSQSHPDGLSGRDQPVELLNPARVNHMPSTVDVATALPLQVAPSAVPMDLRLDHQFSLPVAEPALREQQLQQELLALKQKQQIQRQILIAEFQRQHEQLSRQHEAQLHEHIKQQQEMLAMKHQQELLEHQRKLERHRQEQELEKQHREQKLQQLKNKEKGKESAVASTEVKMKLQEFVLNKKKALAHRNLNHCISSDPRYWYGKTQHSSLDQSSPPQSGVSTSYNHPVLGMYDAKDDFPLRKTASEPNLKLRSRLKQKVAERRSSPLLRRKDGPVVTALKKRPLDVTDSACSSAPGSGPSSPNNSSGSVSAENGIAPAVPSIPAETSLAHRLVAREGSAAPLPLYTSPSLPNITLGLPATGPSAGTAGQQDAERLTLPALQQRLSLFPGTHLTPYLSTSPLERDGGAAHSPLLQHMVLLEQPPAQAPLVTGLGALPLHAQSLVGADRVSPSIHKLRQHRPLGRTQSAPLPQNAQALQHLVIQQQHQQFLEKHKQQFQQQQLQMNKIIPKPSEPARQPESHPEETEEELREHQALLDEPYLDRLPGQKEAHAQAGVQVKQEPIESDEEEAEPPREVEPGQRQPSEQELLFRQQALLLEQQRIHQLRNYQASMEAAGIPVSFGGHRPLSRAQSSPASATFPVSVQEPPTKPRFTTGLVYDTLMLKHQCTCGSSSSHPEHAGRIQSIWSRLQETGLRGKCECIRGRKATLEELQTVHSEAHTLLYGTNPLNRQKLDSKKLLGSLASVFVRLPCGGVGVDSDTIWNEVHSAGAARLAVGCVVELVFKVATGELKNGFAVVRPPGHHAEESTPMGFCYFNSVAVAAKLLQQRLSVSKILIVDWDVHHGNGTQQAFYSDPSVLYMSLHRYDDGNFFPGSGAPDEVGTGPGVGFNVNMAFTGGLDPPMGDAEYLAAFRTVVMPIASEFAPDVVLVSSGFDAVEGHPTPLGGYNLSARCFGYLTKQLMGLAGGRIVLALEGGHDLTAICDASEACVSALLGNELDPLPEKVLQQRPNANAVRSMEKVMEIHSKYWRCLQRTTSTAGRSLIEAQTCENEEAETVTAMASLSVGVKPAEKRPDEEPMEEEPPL

[2] = biological target: HDAC3 (in complex with N-CoR2) (Homo sapiens, UniProt O15379); assay: biochemical
Sequence of HDAC3 (in complex with N-CoR2) (O15379 whole entry): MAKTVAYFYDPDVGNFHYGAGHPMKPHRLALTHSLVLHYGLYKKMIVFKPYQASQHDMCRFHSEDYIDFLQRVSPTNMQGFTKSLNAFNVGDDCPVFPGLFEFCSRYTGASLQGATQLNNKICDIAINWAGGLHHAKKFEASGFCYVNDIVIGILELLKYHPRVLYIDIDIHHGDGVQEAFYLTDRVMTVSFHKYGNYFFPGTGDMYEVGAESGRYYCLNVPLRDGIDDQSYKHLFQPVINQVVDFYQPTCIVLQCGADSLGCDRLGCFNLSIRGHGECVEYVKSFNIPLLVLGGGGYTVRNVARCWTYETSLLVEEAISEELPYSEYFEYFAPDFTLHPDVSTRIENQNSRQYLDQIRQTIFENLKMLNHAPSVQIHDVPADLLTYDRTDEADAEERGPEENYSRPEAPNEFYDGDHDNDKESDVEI
Sequence of HDAC3 (in complex with N-CoR2) (Q9Y618 395-489 partner limits assumed): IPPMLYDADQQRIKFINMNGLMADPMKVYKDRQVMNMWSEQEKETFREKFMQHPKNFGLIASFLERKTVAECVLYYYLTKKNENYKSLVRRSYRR

recombinant human HDAC9 = recombinant human HDAC9 (Homo sapiens, UniProt Q9UKV0); assay: biochemical
Sequence of recombinant human HDAC9 (Q9UKV0 whole entry): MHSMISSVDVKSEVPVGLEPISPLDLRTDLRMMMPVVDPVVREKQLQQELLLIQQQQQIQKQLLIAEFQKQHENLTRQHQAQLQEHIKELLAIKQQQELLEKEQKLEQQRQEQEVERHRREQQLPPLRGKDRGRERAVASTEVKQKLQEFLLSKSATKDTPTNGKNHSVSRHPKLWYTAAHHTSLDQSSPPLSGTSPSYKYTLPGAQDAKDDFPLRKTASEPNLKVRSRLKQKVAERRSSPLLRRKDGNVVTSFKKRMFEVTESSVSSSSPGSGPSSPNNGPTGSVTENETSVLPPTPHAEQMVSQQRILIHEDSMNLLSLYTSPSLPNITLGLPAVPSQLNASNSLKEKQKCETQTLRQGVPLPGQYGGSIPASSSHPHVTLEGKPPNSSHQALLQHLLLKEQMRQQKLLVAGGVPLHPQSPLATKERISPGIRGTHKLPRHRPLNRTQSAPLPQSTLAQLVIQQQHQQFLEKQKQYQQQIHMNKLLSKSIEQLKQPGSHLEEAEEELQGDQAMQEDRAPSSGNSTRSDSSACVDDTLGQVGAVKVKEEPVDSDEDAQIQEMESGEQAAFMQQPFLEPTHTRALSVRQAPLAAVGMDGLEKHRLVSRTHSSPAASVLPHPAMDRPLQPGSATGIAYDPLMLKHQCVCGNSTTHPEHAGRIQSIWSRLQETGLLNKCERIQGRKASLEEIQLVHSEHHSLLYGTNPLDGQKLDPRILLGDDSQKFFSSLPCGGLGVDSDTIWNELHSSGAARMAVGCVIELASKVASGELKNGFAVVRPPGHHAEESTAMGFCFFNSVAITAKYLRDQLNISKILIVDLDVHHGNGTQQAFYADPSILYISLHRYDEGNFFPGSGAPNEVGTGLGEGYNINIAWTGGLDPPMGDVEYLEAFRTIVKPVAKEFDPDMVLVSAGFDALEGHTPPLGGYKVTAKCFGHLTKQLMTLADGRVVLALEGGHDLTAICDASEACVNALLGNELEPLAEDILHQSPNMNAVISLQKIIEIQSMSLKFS

| Structure (SMILES) | GI50 (growth inhibition) [1] | times less active against HDAC1 than against HDAC3/N-CoR2 (recombinant human HDAC1) | times less active against HDAC2 than against HDAC3/N-CoR2 (recombinant human HDAC2) | potency towards HDAC6, times less than to HDAC1–3 (recombinant human HDAC6) | inhibition of HDAC8, times weaker than the inhibition of HDAC1–3 (recombinant human HDAC8; reduced form) | IC50 (recombinant human HDAC1) | IC50 (recombinant human HDAC7) | IC50 (recombinant human HDAC4) | IC50 [2] | IC50 (recombinant human HDAC9) | IC50 (recombinant human HDAC2) | IC50 (recombinant human HDAC6) | fold less potent against HDAC4 than 2* (recombinant human HDAC4) | IC50 (recombinant human HDAC8) | fold less potent against HDAC8 than 2* (recombinant human HDAC8) | inhibition of HDAC8, times weaker than the inhibition of HDAC1–3 (recombinant human HDAC8) |
| --- | --- | --- | --- | --- | --- | --- | --- | --- | --- | --- | --- | --- | --- | --- | --- | --- |
| CCCC[C@H]1NC(=O)C[C@H]2/C=C/CCSSC[C@@H](NC1=O)C(=O)N[C@H]([C@@H](C)CC)[C@@H](O)CC(=O)O2 [Compound 7, thailandepsin B] | low nanomolar concentrations | 80–450 times | 80–450 times | 30–100 times | 80–350 times |  |  |  |  |  |  |  |  |  |  |  |
| C/C=C1\NC(=O)[C@H]2CSSCC/C=C/[C@H](CC(=O)N[C@H](C(C)C)C(=O)N2)OC(=O)[C@H](C(C)C)NC1=O [Compound 2, FK228, reference compound] |  | 80–450 times | 80–450 times | 30–100 times |  | 5.3 nM | 3200 nM | 470 nM |  |  |  |  |  |  |  |  |
| CC[C@H](C)[C@H]1NC(=O)[C@H]2CSSCC/C=C/[C@H](CC(=O)N[C@H](CCSC)C(=O)N2)OC(=O)C[C@@H]1O [Compound 6, thailandepsin A] | low nanomolar concentrations | 80–450 times | 80–450 times | 30–100 times |  | 14 nM | 11000 nM | 42000 nM | 4.8 nM | 12000 nM | 3.5 nM | 380 nM | 40–90 fold | 1200 nM | 40–90 fold | 80–350 times |
